In paper PMC11742080, “Decavanadate Compound Displays In Vitro and In Vivo Antitumor Effect on Melanoma Models” (Bioinorganic Chemistry and Applications, 2025):
pIC50: −log10 of the molar value.

Assays:
[1] = tested on: IGR37 human melanoma cells; assay: MTT cell viability assay, IGR37; format: cell-based
Procedure: (§1) The MTT assay was first described as a sensitive, quantitative, and reliable colorimetric assay to measure the viability, proliferation, and activation of cells. Cell viability was assessed at 24 and 72 h of treatment to evaluate cytotoxicity and the effect on cell proliferation of the decavanadate compound, respectively. The concentrations of the decavanadate compound have been determined by weighing the compound in its crystal form and then solubilizing it in distilled water.
(§2) All cell lines were seeded in 96-well plates (Nunc, Roskilde, Denmark) at a density of 10^4 cells per well and were incubated overnight, before treatment with different concentrations of the decavanadate compound. After 24 or 72 h of treatment, fresh media solution containing MTT at 0.5 mg/mL was added to cells and incubated for 3 h at 37°C. The formed formazan crystals were then dissolved in DMSO, and the absorbance was measured at 560 nm using a BioTek EON Microplate Spectrophotometer (Fisher Scientific). Cell viability was expressed as a percentage of the viable cell number of the untreated cells (control [CTR]).
(§3) The concentration of the decavanadate compound required for 50% growth inhibition (IC50 value) was estimated as resulting in a 50% decrease in absorbance, compared to the CTR.

[2] = tested on: SKMEL28 human melanoma cells; assay: MTT cell viability assay, SKMEL28; format: cell-based
Procedure: as §1, §2, §3

[3] = tested on: IGR39 human melanoma cells; assay: MTT cell viability assay, IGR39; format: cell-based
Procedure: as §1, §2, §3

[4] = tested on: HaCaT normal human keratinocytes; assay: MTT cell viability assay, HaCaT; format: cell-based
Procedure: as §1, §2, §3

[5] = tested on: IGR39 human melanoma cells; assay: Cell adhesion assay (collagen, fibronectin, poly-L-lysine); format: cell-based
Procedure: Adhesion assays were performed as previously described by Morjen et al.. Briefly, flat-bottom 96-well microtiter plates were coated for 2 h at 37°C with fibronectin or collagen at 10 μg/mL, as extracellular matrix (ECM) proteins, or poly-L-lysine at 50 μg/mL, as a nonspecific attachment substrate. Plates were then washed with PBS and blocked by BSA. IGR39 cells were harvested and resuspended in DMEM, in the presence or absence (CTR) of the tested molecule. After incubation for 30 min at room temperature, cells were added to coated wells in a volume of 50 μL (50,000 cells) and allowed to adhere to the substrate for 1 h at 37°C. Unattached cells were removed by gently washing three times with an adhesion buffer. Residual attached cells were fixed by 1% glutaraldehyde, stained by 0.1% crystal violet, and lysed with 1% SDS. The absorbance was then measured at 600 nm by a microplate reader.

[6] = tested on: B16-F10 allografted C57BL/6 mice; assay: B16-F10 melanoma allograft model in mice; format: in vivo
Procedure: The syngeneic transplantation model of melanoma, developed in this study, has been widely used for preclinical testing and offers the advantages of relative ease of use, fast turnaround time, and low cost. A total of 30 male C57BL/6 strain mice were previously adapted to animal facility conditions. The design of the experiment was performed as represented in Figure S2. At the start of the experiment, the backs of the mice were shaved. The mice were divided into four groups: • i. CTR− group: negative CTR group containing 6 mice. This group was injected with a solution of PBS by the subcutaneous route in the dorsal region. • ii. CTR+ group: positive CTR group containing 8 mice. In this group, the mice were subcutaneously injected once with 10^5 B16-F10 cells in the dorsal region at the beginning of the experiment. Four mice were sacrificed after 21 days, and the other 4 mice were sacrificed at the end of the experiment after 31 days. • iii. Cotreatment (CT) group: CT group containing 8 mice. This group was subcutaneously injected with 10^5 B16-F10 cells in the dorsal region and injected simultaneously with 2.5 mg/kg of decavanadate (Mg2Na2V10O28·20H2O), subcutaneously for 21 days of the experiment. All the mice were sacrificed after 21 days. • iv. Post-treatment (PT) group: PT group containing 8 mice. This group was subcutaneously injected with 10^5 B16-F10 cells in the dorsal region. After 21 days, each mouse of this group received a dose of 2.5 mg/kg of decavanadate (Mg2Na2V10O28·20H2O), as a treatment for 10 days. For this group, animals were sacrificed on the 31st day. The experimental design scheme is illustrated in Figure S2.

[7] = Stability of the stock solution (activity retained); format: physicochemical; conditions: 1 mg/mL stock kept at +4°C, experiments repeated after 2 months
Procedure: Four cutaneous melanoma cell lines IGR39, IGR37, SKMEL28, and B16-F10 were treated with increasing concentrations of the decavanadate compound (Figure 3). A stock solution was prepared at a concentration of 1 mg/mL and kept at a temperature of +4°C. The dilutions were made just before the treatment. Figures 3(a) and 3(b) show the dose–response effect of Mg2Na2V10O28·20H2O compound on the viability of different melanoma cell lines, after 24 and 72 h of treatments, respectively.

## dimagnesium disodium decavanadate icosahydrate [Mg2Na2V10O28·20H2O]
[1]; IGR37, 24 h treatment
  pIC50: 4.90
[1]; IGR37, 72 h treatment
  pIC50: 5.85
  IC50, cell viability: 2 µg/mL
[2]; SKMEL28, 24 h treatment
  pIC50: 4.97
[2]; SKMEL28, 72 h treatment
  pIC50: 5.39
[3]; IGR39, 24 h treatment
  pIC50: 4.74
[3]; IGR39, 72 h treatment
  pIC50: 5.28
[4]; 24 h treatment
  Effect on viability of normal keratinocytes: little effect
[4]; 24 h treatment, MTT
  pIC50: < 4.15
[4]; 72 h treatment, MTT
  pIC50: 5.05
  IC50, cell viability: 12.7 µg/mL
[5]; 5 μg/mL
  Inhibition of adhesion of IGR39 cells on fibronectin: 47%
[5]; collagen 10 μg/mL coating, 30 min pretreatment, 1 h adhesion
  IC50, IGR39 cell attachment to collagen: 3.78 µg/mL
[5]; collagen 10 μg/mL coating, 30 min pretreatment, 1 h adhesion, read-out: IC50, IGR39 cell attachment to collagen
  pIC50: 5.57
[5]; highest concentration 5 μg/mL (3.5 μM)
  Reduction of IGR39 cell attachment to collagen: 60%
[5]; up to 5 μg/mL, nonspecific substrate
  Effect on adhesion of IGR39 cells to poly-L-lysine: no effect
[6]; 2.5 mg/kg (50 μg), versus nontreated allografted mice
  Inhibition of tumor development: 70%
[6]; cotreated, 2.5 mg/kg, compared to CTR− group
  Behavior of allografted mice: no change in the behavior
[6]; cotreatment (CT) group, 2.5 mg/kg s.c. for 21 days
  Tumor appearance at day 21: no skin changes
[6]; cotreatment (CT) group, 2.5 mg/kg, day 21
  Skin histology, cotreated mice: disappearance of melanoma
[6]; post-treatment (PT) group, 2.5 mg/kg for 10 days from day 21, day 31
  Average size of the tumor: 8.2 mm
[6]; post-treatment (PT) group, 2.5 mg/kg, day 31
  Skin histology, post-treated mice: appearance of dermal melanoma associated with invasive nests of atypical discohesive melanocytes and dusty pigmentation
[7]
  Stability of stock solution: the compound is stable
